According to PubChem BioAssay (NCI):
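Each compound was tested at five concentrations against cells in 96-well plates for 48 hours. GI50 = concentration required for 50% inhibition of growth. TGI denotes the concentration required for complete inhibition of growth.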

Columns and labels:
Experiment in all cases: NCI anticancer screen, dose series, 48 h
[1] = system: A549 NSCLC
[2] = system: KM12 colon
[3] = system: MOLT-4 leukemia
[4] = system: OVCAR-4 ovarian
[5] = system: OVCAR-5 ovarian
[6] = system: RPMI-8226 leukemia
[7] = system: SF-268 CNS
[8] = system: SF-295 CNS
[9] = system: SW-620 colon
[10] = system: UACC-257 melanoma
[11] = system: ACHN renal
[12] = system: DLD-1 colon
[13] = system: HS 578T breast

Compound	TGI [1]	TGI [2]	TGI [3]	TGI [4]	TGI [5]	TGI [6]	TGI [7]	TGI [8]	TGI [9]	TGI [10]	TGI [11]	TGI [12]	TGI [13]	GI50 [13]	GI50 [3]	GI50 [6]	GI50 [7]	GI50 [8]	GI50 [9]	GI50 [10]
O=C(NN1C(=O)C(Cl)C1c1ccc([N+](=O)[O-])cc1)c1ccccc1O (stereo not drawn)	> 100 µM	> 100 µM	> 100 µM	> 100 µM	> 100 µM	> 100 µM	> 100 µM	> 100 µM	> 100 µM	> 100 µM	–	–	–	–	–	–	–	–	–	–
Cn1nc2ccc3nccc(NCCNCCCl)c3c2n1	> 100 µM	> 100 µM	> 100 µM	> 100 µM	> 100 µM	> 100 µM	> 100 µM	> 100 µM	> 100 µM	–	> 100 µM	> 100 µM	–	–	–	–	–	–	–	–
CCOC(=O)C1CCn2c(nc3c(=O)n(C)c(=O)n(C)c32)S1 (stereo not drawn)	> 100 µM	–	> 100 µM	> 100 µM	> 100 µM	> 100 µM	> 100 µM	> 100 µM	> 100 µM	> 100 µM	> 100 µM	> 100 µM	–	–	–	–	–	–	–	–
CC(=O)O[C@H]1CC[C@H]2[C@@H]3CC[C@H]4Nc5c(cnn5S(C)(=O)=O)C[C@]4(C)[C@H]3CC[C@]12C	–	> 100 µM	> 100 µM	> 100 µM	> 100 µM	> 100 µM	–	> 100 µM	–	–	–	–	> 100 µM	–	–	–	–	–	–	–
COc1cc(C2c3cc4c(cc3[C@@H](Nc3ccc(N5CCOCC5)cc3)C3COC(=O)[C@H]23)OCO4)cc(OC)c1O (stereo partly drawn)	1.62 µM	–	0.19 µM	25.9 µM	22.1 µM	12.6 µM	14.2 µM	2.42 µM	10.1 µM	–	–	4.12 µM	–	–	–	–	–	–	–	–
O=C(/C=C/c1ccsc1)c1ccc(Cl)s1	> 100 µM	35.9 µM	52 µM	> 100 µM	–	45.5 µM	> 100 µM	> 100 µM	55.5 µM	> 100 µM	> 100 µM	–	> 100 µM	–	–	–	–	–	–	–
CN(C)S(=O)(=O)c1cccc(-c2nc3sc4c(c3c(=O)[nH]2)CCCC4)c1	–	–	> 100 µM	–	–	> 100 µM	> 100 µM	4.01 µM	> 100 µM	> 100 µM	–	–	> 100 µM	2.98 µM	> 100 µM	> 100 µM	3.24 µM	1.35 µM	1.78 µM	> 100 µM
